The nature of data set [1]: Partition coefficient of the compound, log P. It is filed as physicochemical. To be noted: octanol/water.
Data set [2] addresses T1, Caspase-6 (Homo sapiens, UniProt P55212).
T1 sequence (P55212 whole entry): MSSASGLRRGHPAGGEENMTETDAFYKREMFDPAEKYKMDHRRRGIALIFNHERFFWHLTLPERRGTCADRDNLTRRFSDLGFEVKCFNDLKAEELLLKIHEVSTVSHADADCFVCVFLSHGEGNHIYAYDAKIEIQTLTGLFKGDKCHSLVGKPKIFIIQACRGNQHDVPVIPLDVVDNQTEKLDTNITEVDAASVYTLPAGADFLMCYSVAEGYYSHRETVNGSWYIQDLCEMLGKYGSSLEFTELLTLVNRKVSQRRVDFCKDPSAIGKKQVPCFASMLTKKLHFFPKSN
Briefly: Inhibition of human recombinant caspase 6.

The target of data set [3] is T2, Caspase-3 (Homo sapiens, UniProt P42574).
T2 sequence (P42574 whole entry): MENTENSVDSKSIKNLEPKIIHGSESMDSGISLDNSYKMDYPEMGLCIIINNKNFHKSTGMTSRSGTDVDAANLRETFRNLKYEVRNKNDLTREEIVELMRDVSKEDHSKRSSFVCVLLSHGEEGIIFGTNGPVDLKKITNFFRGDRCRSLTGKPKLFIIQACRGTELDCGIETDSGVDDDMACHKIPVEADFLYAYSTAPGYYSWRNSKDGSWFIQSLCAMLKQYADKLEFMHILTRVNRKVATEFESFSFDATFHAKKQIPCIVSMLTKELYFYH
The data set is described as follows: Inhibition of human recombinant caspase 3.

Data set [4] addresses Caspase-8 (Homo sapiens, UniProt Q14790). The data set is described as follows: Inhibition of human recombinant caspase 8.
The target in data set [5] is T3, Caspase-1 (Homo sapiens, UniProt P29466).
T3 sequence (P29466 whole entry): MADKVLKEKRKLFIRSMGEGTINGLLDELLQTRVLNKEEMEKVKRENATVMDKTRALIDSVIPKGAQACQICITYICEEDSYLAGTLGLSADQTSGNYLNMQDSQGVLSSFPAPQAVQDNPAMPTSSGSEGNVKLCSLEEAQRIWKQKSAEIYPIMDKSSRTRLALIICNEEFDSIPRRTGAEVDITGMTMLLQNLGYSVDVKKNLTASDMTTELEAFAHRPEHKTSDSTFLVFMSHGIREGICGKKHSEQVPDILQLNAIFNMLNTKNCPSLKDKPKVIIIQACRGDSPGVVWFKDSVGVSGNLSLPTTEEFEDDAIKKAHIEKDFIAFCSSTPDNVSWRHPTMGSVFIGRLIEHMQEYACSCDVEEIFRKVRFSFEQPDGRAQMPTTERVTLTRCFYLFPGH
The data set is described as follows: Inhibition of human recombinant caspase 1.

Data set [6] has as its target T4, Caspase-7 (Homo sapiens, UniProt P55210).
T4 sequence (P55210 whole entry): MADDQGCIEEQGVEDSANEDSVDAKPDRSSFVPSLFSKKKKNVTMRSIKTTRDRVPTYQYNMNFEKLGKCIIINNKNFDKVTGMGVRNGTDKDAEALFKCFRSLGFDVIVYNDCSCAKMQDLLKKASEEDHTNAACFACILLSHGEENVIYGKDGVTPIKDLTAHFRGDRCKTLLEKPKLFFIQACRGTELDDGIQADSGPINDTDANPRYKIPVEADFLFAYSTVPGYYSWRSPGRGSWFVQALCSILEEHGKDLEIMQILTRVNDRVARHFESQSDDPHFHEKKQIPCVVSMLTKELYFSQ
The data set is described as follows: Inhibition of human recombinant caspase 7.

In ChEMBL document CHEMBL1146205, “Isatin sulfonamide analogs containing a Michael addition acceptor: a new class of caspase 3/7 inhibitors” (J Med Chem, 2007) one finds logP and IC50 data, which are given here for 13 compounds.

As a reminder, the logP is the decadic logarithm of the partition coefficient of the neutral form, usually between octanol and water. Lower therefore signals a more hydrophilic compound. The IC50 is the concentration that inhibits the measured activity by half.

Chain of Caspase-8 (Q14790 217-374 limits assumed): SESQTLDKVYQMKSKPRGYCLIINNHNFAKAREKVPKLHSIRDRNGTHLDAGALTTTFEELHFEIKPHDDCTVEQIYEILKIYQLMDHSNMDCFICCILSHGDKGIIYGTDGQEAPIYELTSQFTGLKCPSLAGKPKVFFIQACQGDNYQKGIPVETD
Chain of Caspase-8 (Q14790 385-479 limits assumed): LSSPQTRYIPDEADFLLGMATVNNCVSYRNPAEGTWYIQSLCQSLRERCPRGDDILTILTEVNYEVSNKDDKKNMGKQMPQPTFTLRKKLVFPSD

Turning to `O=C1C(=O)N(Cc2ccc(OCCF)cc2)c2ccc(S(=O)(=O)N3CCC[C@H]3COc3ccccc3)cc21`, the logP in data set [1] turned out to be 4.19.
In data set [1], `N#CC(C#N)=C1C(=O)N(Cc2ccccc2)c2ccc(S(=O)(=O)N3CCC[C@H]3COc3ccccc3)cc21` displayed a logP of 3.5. The IC50 in data set [2] was 918 nM; in data set [3], 27.8 nM; in data set [4], greater than 50000 nM; in data set [5], 6220 nM; in data set [6], 51.7 nM.
`N#CC(C#N)=C1C(=O)N(Cc2ccccc2)c2ccc(S(=O)(=O)N3CCC[C@H]3COc3cccnc3)cc21` returned a logP in data set [1] of 2.45. For the same compound, the IC50 in data set [2] is 823 nM; in data set [3], 7.6 nM; in data set [4], greater than 50000 nM; in data set [5], 3250 nM; in data set [6] it was 32.8 nM.
As for `N#CC(C#N)=C1C(=O)N(Cc2ccc(O)cc2)c2ccc(S(=O)(=O)N3CCC[C@H]3COc3cccnc3)cc21`, the logP in data set [1] amounted to 1.77. The IC50 in data set [2] was 650 nM; in data set [3], 7.8 nM; in data set [4], greater than 50000 nM; in data set [5] it was 2720 nM; in data set [6], 28.3 nM.
Compound `O=C1C(=O)N(Cc2ccc(O)cc2)c2ccc(S(=O)(=O)N3CCC[C@H]3COc3cccnc3)cc21` gave a logP in data set [1] of 2.25. In addition, the IC50 was 9550 nM in data set [2]; 3.9 nM in data set [3]; greater than 50000 nM in data set [4]; greater than 15000 nM in data set [5]; 11.7 nM in data set [6].
Regarding `O=C1C(=O)N(Cc2ccc(Br)cc2)c2ccc(S(=O)(=O)N3CCC[C@H]3COc3cccnc3)cc21`, the lipophilicity (logP) in data set [1] was 3.76. Moreover, the IC50 in data set [2] is 5030 nM; in data set [3] it was 3.6 nM; in data set [4], greater than 50000 nM; in data set [5], greater than 15000 nM; in data set [6], 6.6 nM.
Consider `O=C1C(=O)N(Cc2ccc(Br)cc2)c2ccc(S(=O)(=O)N3CCC[C@H]3COc3ccccc3)cc21`, for which the logP in data set [1] was 4.82. Besides, the IC50 is 8900 nM in data set [2]; 9.85 nM in data set [3]; greater than 50000 nM in data set [4]; greater than 15000 nM in data set [5]; 34.8 nM in data set [6].
`N#CC(C#N)=C1C(=O)Nc2ccc(S(=O)(=O)N3CCC[C@H]3COc3ccccc3)cc21` showed a logP in data set [1] of 1.07. For the same compound, the IC50 in data set [2] is 407 nM; in data set [3], 272 nM; in data set [4], greater than 50000 nM; in data set [5] it was 1830 nM; in data set [6], 1590 nM.
For `N#CC(C#N)=C1C(=O)N(Cc2ccc(Br)cc2)c2ccc(S(=O)(=O)N3CCC[C@H]3COc3cccnc3)cc21`, the logP in data set [1] came to 3.22. For the same compound, the IC50 in data set [2] was 515 nM; in data set [3], 5.1 nM; in data set [4] it was greater than 50000 nM; in data set [5], 3400 nM; in data set [6] it was 26.3 nM.
On to `CN1C(=O)C(=C(C#N)C#N)c2cc(S(=O)(=O)N3CCC[C@H]3COc3ccccc3)ccc21`, for which, in data set [1], the logP is 1.71. The IC50 in data set [2] is 698 nM; in data set [3], 119 nM; in data set [4], greater than 50000 nM; in data set [5] it was 2830 nM; in data set [6], 785 nM.
Take `N#CC(C#N)=C1C(=O)N(Cc2ccc(O)cc2)c2ccc(S(=O)(=O)N3CCC[C@H]3COc3ccccc3)cc21`: the logP in data set [1] stood at 2.77. In addition, the IC50 in data set [2] is 744 nM; in data set [3] it was 31.8 nM; in data set [4], greater than 50000 nM; in data set [5], 2300 nM; in data set [6], 126 nM.
In data set [1], `COc1ccc(CN2C(=O)C(=C(C#N)C#N)c3cc(S(=O)(=O)N4CCC[C@H]4COc4cccnc4)ccc32)cc1` gave a logP of 2.36. Further, the IC50 in data set [2] was 610 nM; in data set [3], 7.8 nM; in data set [4], greater than 50000 nM; in data set [5] it was 3900 nM; in data set [6], 29.6 nM.
Consider `N#CC(C#N)=C1C(=O)N(Cc2ccc(Br)cc2)c2ccc(S(=O)(=O)N3CCC[C@H]3COc3ccccc3)cc21`, for which the logP in data set [1] turned out to be 4.28. Moreover, the IC50 in data set [2] was 840 nM; in data set [3], 20.1 nM; in data set [4], greater than 50000 nM; in data set [5] it was 5700 nM; in data set [6], 92.2 nM.
